Key:
NCI-H358 [1] = test: relative IC50 of cell viability (CellTiter-Glo); higher = less potent
Summary of the method: (§1)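 Relative IC50 values, averaged over replicates, and lower plateaus were obtained by four-parameter nonlinear fitting of percent-of-control viability data, normalised to DMSO controls. Viability was read as CellTiter-Glo luminescence after single-compound dose series had been incubated for 72 h (NCI-H2122, NCI-H358) or 144 h (SW837).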

NCI-H2122 [2] = test: fitted bottom plateau of viability curve, % of DMSO control; higher = less maximal inhibition; extreme values may be limits of the assay
Summary of the method: as §1

NCI-H358 [3] = test: as above
Summary of the method: as §1

SW837 [4] = test: as above
Summary of the method: as §1

NCI-H2122 [5] = test: combination cScore with adagrasib (Bliss gap around IC50) (%PoC); higher = stronger additive effect
Summary of the method: (§2)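 Scores represent the average Bliss-independence gap, expected minus measured viability, in a field surrounding both monotherapy IC50s, with the top concentrations used when no IC50 was reached. Cells (NCI-H2122, NCI-H358, SW837) were seeded at 500 or 800 per well in 384-well plates, dosed in matrices at 24 h and grown for 72 h, with SW837 grown for 144 h. Viability was measured by CellTiter-Glo, normalised to vehicle wells and fitted with four-parameter curves.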

NCI-H358 [6] = test: as above
Summary of the method: as §2

SW837 [7] = test: as above
Summary of the method: as §2

| SMILES | relative IC50 of cell viability (NCI-H358 [1]) [nM] | fitted bottom plateau of viability curve (NCI-H2122 [2]) [%] | fitted bottom plateau of viability curve (NCI-H358 [3]) [%] | fitted bottom plateau of viability curve (SW837 [4]) [%] | combination cScore with adagrasib (NCI-H2122 [5]) | combination cScore with adagrasib (NCI-H358 [6]) | combination cScore with adagrasib (SW837 [7]) |
| --- | --- | --- | --- | --- | --- | --- | --- |
| CCN(CCCOc1ccc2c(Nc3cc(CC(=O)Nc4cccc(F)c4)[nH]n3)ncnc2c1)CCOP(=O)(O)O [AZD-1152] (top concentration tested 1000.1 nM) | 28 | 57.4 | 60.1 | 62 |  |  |  |
| CS(=O)(=O)CCNCc1ccc(-c2ccc3ncnc(Nc4ccc(OCc5cccc(F)c5)c(Cl)c4)c3c2)o1 [Lapatinib] + C=C(F)C(=O)N1CCN(c2nc(OC[C@@H]3CCCN3C)nc3c2CCN(c2cccc4cccc(Cl)c24)C3)C[C@@H]1CC#N [adagrasib] |  |  |  |  | 18.6 | 11.3 | 11.2 |
| Cc1c(CN2CCC(Nc3ncnc4sc(CC(F)(F)F)cc34)CC2)ccc2[nH]c(C#N)cc12 [MI-463] + C=C(F)C(=O)N1CCN(c2nc(OC[C@@H]3CCCN3C)nc3c2CCN(c2cccc4cccc(Cl)c24)C3)C[C@@H]1CC#N [adagrasib] |  |  |  |  | 19.7 | 5.31 | 0.27 |
| NC1(c2ccc(-c3nc4ccn5c(=O)[nH]nc5c4cc3-c3ccccc3)cc2)CCC1 [MK-2206] + C=C(F)C(=O)N1CCN(c2nc(OC[C@@H]3CCCN3C)nc3c2CCN(c2cccc4cccc(Cl)c24)C3)C[C@@H]1CC#N [adagrasib] |  |  |  |  | 8 | 6.39 | 12.2 |
| CC(C)n1nc(-c2ccc3oc(N)nc3c2)c2c(N)ncnc21 [MLN-0128] + C=C(F)C(=O)N1CCN(c2nc(OC[C@@H]3CCCN3C)nc3c2CCN(c2cccc4cccc(Cl)c24)C3)C[C@@H]1CC#N [adagrasib] |  |  |  |  | 7.57 | 0.5 | 9.3 |
| O=C1c2c(O)ccc(O)c2C(=O)c2c(NCCNCCO)ccc(NCCNCCO)c21 [Mitoxantrone] + C=C(F)C(=O)N1CCN(c2nc(OC[C@@H]3CCCN3C)nc3c2CCN(c2cccc4cccc(Cl)c24)C3)C[C@@H]1CC#N [adagrasib] |  |  |  |  | 12.9 | 0.02 | 5.32 |
| COc1cc(N2CCC(N3CCN(C)CC3)CC2)ccc1Nc1ncc(Cl)c(Nc2ccccc2S(=O)(=O)C(C)C)n1 [NVP-TAE684] + C=C(F)C(=O)N1CCN(c2nc(OC[C@@H]3CCCN3C)nc3c2CCN(c2cccc4cccc(Cl)c24)C3)C[C@@H]1CC#N [adagrasib] |  |  |  |  | 12.8 | 3.66 | 23.6 |
| O=C(c1cc(Cc2n[nH]c(=O)c3ccccc23)ccc1F)N1CCN(C(=O)C2CC2)CC1 [Olaparib] + C=C(F)C(=O)N1CCN(c2nc(OC[C@@H]3CCCN3C)nc3c2CCN(c2cccc4cccc(Cl)c24)C3)C[C@@H]1CC#N [adagrasib] |  |  |  |  | 5.71 | 1.38 | 2.95 |
| C=CC(=O)Nc1cc(Nc2nccc(-c3cn(C)c4ccccc34)n2)c(OC)cc1N(C)CCN(C)C [Osimertinib] + C=C(F)C(=O)N1CCN(c2nc(OC[C@@H]3CCCN3C)nc3c2CCN(c2cccc4cccc(Cl)c24)C3)C[C@@H]1CC#N [adagrasib] |  |  |  |  | 10 | 8.16 | 26.1 |
| O=C(/C=C/N1C[C@H]2C[C@@H]1CN2c1ccccn1)c1ccccc1O [PFI-3] + C=C(F)C(=O)N1CCN(c2nc(OC[C@@H]3CCCN3C)nc3c2CCN(c2cccc4cccc(Cl)c24)C3)C[C@@H]1CC#N [adagrasib] |  |  |  |  | 15.8 | -3.19 | -2.21 |
| O=C(c1c(F)ccc(NS(=O)(=O)N2CC[C@@H](F)C2)c1F)c1c[nH]c2ncc(-c3cnc(C4CC4)nc3)cc12 [PLX8394] + C=C(F)C(=O)N1CCN(c2nc(OC[C@@H]3CCCN3C)nc3c2CCN(c2cccc4cccc(Cl)c24)C3)C[C@@H]1CC#N [adagrasib] |  |  |  |  | 17.5 | 0.57 | -2.23 |
| CC(=O)c1c(C)c2cnc(Nc3ccc(N4CCNCC4)cn3)nc2n(C2CCCC2)c1=O [Palbociclib] + C=C(F)C(=O)N1CCN(c2nc(OC[C@@H]3CCCN3C)nc3c2CCN(c2cccc4cccc(Cl)c24)C3)C[C@@H]1CC#N [adagrasib] |  |  |  |  | 8.54 | 2.62 | 19.2 |
| Cc1ccc(C(=O)Nc2ccc(CN3CCN(C)CC3)c(C(F)(F)F)c2)cc1C#Cc1cnc2cccnn12 [Ponatinib] + C=C(F)C(=O)N1CCN(c2nc(OC[C@@H]3CCCN3C)nc3c2CCN(c2cccc4cccc(Cl)c24)C3)C[C@@H]1CC#N [adagrasib] |  |  |  |  | 14.4 | 3.62 | -0.53 |
| CCc1nc(N)nc(N)c1-c1ccc(Cl)cc1 [Pyrimethamine] + C=C(F)C(=O)N1CCN(c2nc(OC[C@@H]3CCCN3C)nc3c2CCN(c2cccc4cccc(Cl)c24)C3)C[C@@H]1CC#N [adagrasib] |  |  |  |  | 15.2 | -2.05 | -3.37 |
| CC1(N)CCN(c2cnc(-c3cccc(Cl)c3Cl)c(N)n2)CC1 [SHP099] + C=C(F)C(=O)N1CCN(c2nc(OC[C@@H]3CCCN3C)nc3c2CCN(c2cccc4cccc(Cl)c24)C3)C[C@@H]1CC#N [adagrasib] |  |  |  |  | 19.4 | 1.39 | 14.3 |
| CCc1c2c(nc3ccc(O)cc13)-c1cc3c(c(=O)n1C2)COC(=O)[C@]3(O)CC [SN-38] + C=C(F)C(=O)N1CCN(c2nc(OC[C@@H]3CCCN3C)nc3c2CCN(c2cccc4cccc(Cl)c24)C3)C[C@@H]1CC#N [adagrasib] |  |  |  |  | 6.93 | -1.51 | -1.14 |
| C[C@@H]1OCC2(CCN(c3cnc(Sc4ccnc(N)c4Cl)c(N)n3)CC2)[C@@H]1N [TNO155] + C=C(F)C(=O)N1CCN(c2nc(OC[C@@H]3CCCN3C)nc3c2CCN(c2cccc4cccc(Cl)c24)C3)C[C@@H]1CC#N [adagrasib] |  |  |  |  | 49 | 9.32 | 31 |
| CC/C(=C(\c1ccccc1)c1ccc(OCCN(C)C)cc1)c1ccccc1 [Tamoxifen] + C=C(F)C(=O)N1CCN(c2nc(OC[C@@H]3CCCN3C)nc3c2CCN(c2cccc4cccc(Cl)c24)C3)C[C@@H]1CC#N [adagrasib] |  |  |  |  | 10.3 | 6.27 | 5.45 |
| Cc1nc(-c2cn3c(n2)-c2ccc(-c4cnn(C(C)(C)C(N)=O)c4)cc2OCC3)n(C(C)C)n1 [Taselisib] + C=C(F)C(=O)N1CCN(c2nc(OC[C@@H]3CCCN3C)nc3c2CCN(c2cccc4cccc(Cl)c24)C3)C[C@@H]1CC#N [adagrasib] |  |  |  |  | 18.1 | 7.08 | 26.6 |
| COc1cc2/c(=N/c3ccc(Br)cc3F)nc[nH]c2cc1OCC1CCN(C)CC1 [Vandetanib] + C=C(F)C(=O)N1CCN(c2nc(OC[C@@H]3CCCN3C)nc3c2CCN(c2cccc4cccc(Cl)c24)C3)C[C@@H]1CC#N [adagrasib] |  |  |  |  | 21.3 | 7.95 | 27.6 |
| Oc1nc(-c2ccc(C(F)(F)F)cc2)nc2c1CSCC2 [XAV939] + C=C(F)C(=O)N1CCN(c2nc(OC[C@@H]3CCCN3C)nc3c2CCN(c2cccc4cccc(Cl)c24)C3)C[C@@H]1CC#N [adagrasib] |  |  |  |  | 23.8 | 4.11 | 5.74 |
| CCNC(=O)C[C@@H]1N=C(c2ccc(Cl)cc2)c2cc(OC)ccc2-n2c(C)nnc21 [iBET-762] + C=C(F)C(=O)N1CCN(c2nc(OC[C@@H]3CCCN3C)nc3c2CCN(c2cccc4cccc(Cl)c24)C3)C[C@@H]1CC#N [adagrasib] |  |  |  |  | 22.7 | 5.14 | 0.28 |

From the supplement of paper PMC11424490
